The values below come from patent US20160362416A1, “ANTIVIRAL COMPOUNDS” (Gilead Sciences, Inc., priority 2012, published 2016).

For test [1], the system named is NS5A chimeric genotype 1b Con1 replicon with genotype 3a S52 strain NS5A gene. In words: HCV genotype 3a NS5A chimeric replicon assay. It counts as cell-based. The conditions noted are these: Hepatitis C virus, 72 h, read-out: 3a (nM). As for the experimental part:
(§1) Evaluation of cell-based anti-HCV activity: Antiviral potency (EC50) was determined using a Renilla luciferase (RLuc)-based HCV replicon reporter assay. To perform the assay for genotype 1 and 2a JFH-1, stable HCV 1a RLuc replicon cells (harboring a dicistronic genotype 1a H77 replicon that encodes a RLuc reporter), stable HCV lb RLuc replicon cells (harboring a dicistronic genotype 1b Conl replicon that encodes a RLuc reporter), or stable HCV 2a JFH-1 Rluc replicon cells (harboring a dicistronic genotype 2a JFH-1 replicon that encodes a RLuc reporter; with L31 present in NS5A) were dispensed into 384-well plates for EC50 assays. To perform the assay for genotype 2a (with M31 present in NS5A) or 2b, NS5A chimeric genotype 2a JFH-1 replicons that encodes a RLuc-Neo reporter and either genotype 2a J6 strain NS5A gene or genotype 2b MD2b-1 strain NS5A gene (both with M31 present) respectively, were either transiently transfected (t) into Huh-Lunet cells or were established as stably replicating replicon cells (s) is provided. Either cells were dispensed into 384-well plates for EC50 assays. To perform the assay for genotype 3 and 4, NS5A chimeric genotype 1b Conl replicons that encodes a Pi-RLuc reporter and either genotype 3a S52 strain NS5A gene or genotype 4a ED43 strain NS5A gene respectively, were transiently transfected (t) into Huh-Lunet cells, which were subsequently dispensed into 384-well plates. Compounds were dissolved in DMSO at a concentration of 10 mM and diluted in DMSO either manually or using an automated pipeting instrument. Serially 3-fold diluted compounds were either manually mixed with cell culture media and added to the seeded cells or directly added to the cells using an automated instrument. DMSO was used as a negative (solvent; no inhibition) control, and the protease inhibitor ITMN-191 was included at a concentration >100×EC50 as a positive control. 72 hours later, cells were lysed and Renilla luciferase activity quantified as recommended by the manufacturer (Promega-Madison, Wis.). Non-linear regression was performed to calculate EC50 values.
Background: A replicon is a self-replicating genome or part of one, used to study replication in cells.

Test [2] relates to Y93H in genotype 1a NS5A replicon. Description: Resistance mutant replicon assay, genotype 1a NS5A Y93H. It counts as cell-based, HCV. The conditions noted are these: Hepatitis C virus, read-out: 1a Y93H (nM). As for the experimental part:
as §1
(§2) To determine the antiviral potency (EC50) against resistance mutants, resistance mutations, including M28T, Q30R, Q30H, Q30E, L31M, Y93C, Y93H, and Y93N in genotype 1a NS5A, Y93H and L31V/Y93H in genotype 1b NS5A, and Y93H for in genotype 3a NS5A, were introduced individually into either 1a Pi-Rluc or 1b Pi-Rluc replicons by site directed mutagenesis. Replicon RNA of each resistant mutant was transiently transfected into Huh-7-derived cured-51 cells and antiviral potency was determined on these transfected cells as described above.

In test [3] the test system is stable HCV 1a RLuc replicon cells (genotype 1a H77 replicon). Description: HCV genotype 1a RLuc replicon reporter assay. The test is classed as cell-based. The conditions noted are these: Hepatitis C virus; stable genotype 1a H77 RLuc replicon cells, 72 hours. As for the experimental part: as §1
Test [4] has as its system Y93H in genotype 3a NS5A replicon. In words: Resistance mutant replicon assay, genotype 3a NS5A Y93H. It counts as cell-based, HCV. As to conditions: Hepatitis C virus, read-out: 3a Y93H (nM). Here is the method:
as §1, §2

The test system of test [5] is NS5A chimeric genotype 1b Con1 replicon with genotype 4a ED43 strain NS5A gene. Description: HCV genotype 4a NS5A chimeric replicon assay. The test is classed as cell-based. The conditions noted are these: Hepatitis C virus, 72 h, read-out: 4a (s) (nM). Here is the method: as §1, with “[…],” for “were transiently transfected (t) into Huh-Lunet cells,”
The subject of test [6] is NS5A chimeric genotype 2a JFH-1 replicon with genotype 2a J6 strain NS5A gene (M31). In words: HCV genotype 2a J6 NS5A chimeric replicon assay, transient (t). The test is classed as cell-based. As to conditions: Hepatitis C virus, 72 h, read-out: 2a J6 (t) (nM). Here is the method: as §1
The subject of test [7] is stable HCV 2a JFH-1 Rluc replicon cells (L31 present in NS5A). In words: HCV genotype 2a JFH-1 RLuc replicon reporter assay. The test is classed as cell-based. The conditions noted are these: Hepatitis C virus, 72 h, read-out: 2a JFH (nM). As for the experimental part:
as §1

The subject of test [8] is stable HCV 1b RLuc replicon cells (genotype 1b Con1 replicon). Description: HCV genotype 1b RLuc replicon reporter assay. It counts as cell-based. As to conditions: Hepatitis C virus; stable genotype 1b Con1 RLuc replicon cells, 72 hours. Here is the method:
as §1

The subject of test [9] is Y93N in genotype 1a NS5A replicon. Description: Resistance mutant replicon assay, genotype 1a NS5A Y93N. The test is classed as cell-based, HCV. As to conditions: Hepatitis C virus, read-out: 1a Y93N (nM). Here is the method:
as §1, §2

In test [10] the test system is NS5A chimeric genotype 2a JFH-1 replicon with genotype 2b MD2b-1 strain NS5A gene (M31). Description: HCV genotype 2b NS5A chimeric replicon assay, stable (s). The test is classed as cell-based. The conditions noted are these: Hepatitis C virus, 72 h, read-out: 2b (s) (nM). As for the experimental part: as §1

As to `COC(=O)N[C@H](C(=O)N1[C@@H](C)CC[C@H]1c1ncc(-c2ccc3c(c2)COc2cc4c(ccc5nc([C@@H]6C[C@@H]7CCC[C@@H]7N6C(=O)[C@@H](NC(=O)OC)C6C[C@@H](C)O[C@H](C)C6)[nH]c54)cc2-3)[nH]1)C(C)C` (stereo partly drawn) [Example AX, methyl {(2S)-1-[(2S,5S)-2-(5-{2-[(2S,3aS,6aS)-1-{(2S)-2-[(2R,6R)-2,6-dimethyltetrahydro-2H-pyran-4-yl]-2-[(methoxycarbonyl)amino]acetyl}octahydrocyclopenta[b]pyrrol-2-yl]-1,11-dihydroisochromeno[4′,3′:6,7]naphtho[1,2-d]imidazol-9-yl}-1H-imidazol-2-yl)-5-methylpyrrolidin-1-yl]-3-methyl-1-oxobutan-2-yl}carbamate], the EC50 in [1] is 0.015 nM; in test [2], 0.48 nM; in test [3] it was 0.017 nM; in [4] it was 4.97 nM; in [5], 0.01 nM; in test [6] it was 0.046 nM. In addition, the EC50 in test [7] is 0.012 nM; in test [8], 0.022 nM; in test [9], 0.885 nM; in test [10], 0.027 nM.
On to `COC[C@H]1C[C@@H](c2nc3ccc4cc5c(cc4c3[nH]2)OCc2cc(-c3cnc([C@@H]4CC[C@H](C)N4C(=O)[C@@H](NC(=O)OC)C4C[C@@H](C)O[C@H](C)C4)[nH]3)ccc2-5)N(C(=O)[C@@H](NC(=O)OC)C2C[C@@H](C)O[C@H](C)C2)C1` (stereo partly drawn) [Example BD, methyl {(1S)-1-[(2R,6R)-2,6-dimethyltetrahydro-2H-pyran-4-yl]-2-[(2S,5S)-2-(5-{2-[(2S,4S)-1-{(2S)-2-[(2R,6R)-2,6-dimethyltetrahydro-2H-pyran-4-yl]-2-[(methoxycarbonyl)amino]acetyl}-4-methoxymethylpyrrolidin-2-yl]-1,11-dihydroisochromeno[4′,3′:6,7]naphtho[1,2-d]imidazol-9-yl}-1H-imidazol-2-yl)-5-methylpyrrolidin-1-yl]-2-oxoethyl}carbamate], for which the EC50 in test [1] came to 0.072 nM; in [2], 0.088 nM; in test [3], 0.06 nM; in test [4] it was 0.814 nM; in test [5], 0.029 nM; in [7], 0.017 nM. The EC50 is 0.096 nM in test [8], 0.104 nM in test [9] and 0.026 nM in [10].
In the case of `CC[C@H](C)[C@H](NC(=O)OC)C(=O)N1[C@@H](C)CC[C@H]1c1ncc(-c2ccc3c(c2)COc2cc4c(cc2-3)CCc2nc([C@@H]3CC[C@H](C)N3C(=O)[C@@H](NC(=O)OC)C3C[C@@H](C)O[C@H](C)C3)[nH]c2-4)[nH]1` (stereo partly drawn) [Example BE, methyl{(2S,3S)-1-[(2S,5S)-2-(5-{2-[(2S,5S)-1-{(2S)-2-[(2R,6R)-2,6-dimethyltetrahydro-2H-pyran-4-yl]-2-[(methoxycarbonyl)amino]acetyl}-5-methylpyrrolidin-2-yl]-1,4,5,11-tetrahydroisochromeno[4′,3′:6,7]naphtho[1,2-d]imidazol-9-yl}-1H-imidazol-2-yl)-5-methylpyrrolidin-1-yl]-3-methyl-1-oxopentan-2-yl}carbamate], the EC50 in [1] is 0.022 nM; in test [2], 0.755 nM; in test [3] it was 0.017 nM; in test [4], 2.25 nM; in test [5] it was 0.011 nM; in test [7] it was 0.011 nM. The results for the EC50 in test [8], in test [9] and in [10] were 0.019 nM, 1.42 nM and 0.029 nM, respectively.
For `COC(=O)N[C@H](C(=O)N1[C@@H](C)CC[C@H]1c1ncc(-c2ccc3c(c2)COc2cc4c(cc2-3)CCc2nc([C@@H]3CC[C@H](C)N3C(=O)[C@@H](NC(=O)OC)C3C[C@@H](C)O[C@H](C)C3)[nH]c2-4)[nH]1)C1C[C@@H](C)O[C@H](C)C1` (stereo partly drawn) [Example BF, methyl {(1S)-1-[(2R,6R)-2,6-dimethyltetrahydro-2H-pyran-4-yl]-2-[(2S,5S)-2-(9-{2-[(2S,5S)-1-{(2S)-2-[(2R,6R)-2,6-dimethyltetrahydro-2H-pyran-4-yl]-2-[(methoxycarbonyl)amino]acetyl}-5-methylpyrrolidin-2-yl]-1H-imidazol-5-yl}-1,4,5,11-tetrahydroisochromeno[4′,3′:6,7]naphtho[1,2-d]imidazol-2-yl)-5-methylpyrrolidin-1-yl]-2-oxoethyl}carbamate], the EC50 turned out to be 0.065 nM in test [1]; 0.035 nM in test [2]; 0.048 nM in test [3]; 0.365 nM in test [4]; 0.025 nM in test [5]; 0.035 nM in test [6]. Besides, the EC50 is 0.021 nM in test [7], 0.049 nM in test [8], 0.125 nM in test [9] and 0.042 nM in test [10].
For `CC[C@H](C)[C@H](NC(=O)OC)C(=O)N1[C@H](c2ncc(-c3ccc4c(c3)COc3cc5c(ccc6nc([C@@H]7CC[C@H](C)N7C(=O)[C@@H](NC(=O)OC)C7C[C@@H](C)O[C@H](C)C7)[nH]c65)cc3-4)[nH]2)C[C@@H]2CCC[C@@H]21` (stereo partly drawn) [Example BG, methyl{(2S,3S)-1-[(2S,3aS,6aS)-2-(5-{2-[(2S,5S)-1-{(2S)-2-[(2R,6R)-2,6-dimethyltetrahydro-2H-pyran-4-yl]-2-[(methoxycarbonyl)amino]acetyl}-5-methylpyrrolidin-2-yl]-1,11-dihydroisochromeno[4′,3′:6,7]naphtho[1,2-d]imidazol-9-yl}-1H-imidazol-2-yl)hexahydrocyclopenta[b]pyrrol-1(2H)-yl]-3-methyl-1-oxopentan-2-yl}carbamate], the EC50 in test [1] came out at 0.028 nM; in test [2], 0.364 nM; in [3], 0.02 nM; in test [4], 5.58 nM; in test [5] it was 0.017 nM; in test [6], 0.045 nM. In addition, the EC50 in test [7] worked out at 0.017 nM; in test [8], 0.018 nM; in test [9], 0.883 nM; in test [10], 0.039 nM.
